Measurements published in patent publication US9814758B2, “Inhibitors of apoptosis and uses thereof” (CENTRE NATIONAL DE LA RECHERCHE SCIENTIFIQUE-CNRS, priority 2010, dated 2017).
Non-standard residues stand in square brackets, D forms with d. Residues, ends and D or L forms follow the SMILES beside them. No end group written: not given here. Ahx = NCCCCCC(=O)O

Legend:
H9c2 cells = experiment: STS-induced DNA fragmentation (Cell Death detection ELISA PLUS) in H9c2 cells; assay type: cell-based, rat; details: rat H9c2 (model for cardiac cells); FIG. 5C
Method: FIG. 5: In vitro evaluation of the anti-apoptotic activity of CPPs and CPP-conjugates. Workflow and quantitation of DNA fragmentation in (A) C2C12 cells, (B) primary cardiomyocytes, (C) H9c2 cells and (D) NG108-15 cells. Data were normalized to 100% STS. Data shown are the means±SEM, with n≧5. Cells were seeded in 24-well plates and grown overnight. The next day, the cells were incubated with STS alone or with STS+1 μM peptide (in OPTI-MEM) (OPTI-MEM® is a modification of Eagle's Minimum Essential Media, buffered with HEPES and sodium bicarbonate, and supplemented with hypoxanthine, thymidine, sodium pyruvate, L-glutamine, trace elements, and growth factors) (STS concentration and incubation time for each cells are given in the figure). Thereafter, solutions were removed, replaced by complete medium and further incubated for 40 h. Following the regeneration phase, the cells were lyzed and DNA fragmentation was detected according to manufacturer's instructions (Cell Death detection ELISA^PLUS kit—Roche Diagnostics). […]
Thereafter, the capacity of these peptides to inhibit apoptosis induced by staurosporine was evaluated. Apoptosis was determined using the Cell Death detection ELISA^PLUS kit (Roche) measuring the DNA fragmentation.
The anti-apoptotic effects of the peptides were also analyzed in murine NG118-15 (model for neuronal cells) (FIG. 5D), in murine C2C12 (model for muscle cells) (FIG. 5A) and in rat H9c2 (model for cardiac cells) (FIG. 5C). The highest reduction in DNA fragmentation were observed using Bpep-DAXXp in NG118-15 (66% reduction) using Tat-DAXXp in C2C12 (24% reduction) and Pip2b-DAXXp in H9c2 (31% reduction).

kidney graft = experiment: Cold ischemia/reperfusion injury during kidney transplantation; assay type: in vivo, rat; details: preliminary
Description: FIG. 17: Preliminary data on cold ischemia/reperfusion injury during kidney transplantation. Brain death and prolonged cold ischemia are major contributors to the poorer long-term outcome of transplants from deceased donor kidney transplants, with an even higher impact if expanded criteria donors (‘marginal organs’) are used. Targeting ischemia-reperfusion (IR) injury-related intragraft inflammation is an attractive concept to improve the outcome of those grafts. (A) Workflow of cold ischemia/reperfusion during kidney transplantation in rat. After a 24 h cold ischemia, the kidney graft was transplanted orthotopically into male LEW recipients using standard microsurgical techniques. Peptides were injected immediately after reperfusion in a single i.v injection at 1 mg/kg. Three days after transplantation, grafts were harvested for RT-PCR analysis (n=3). (B) Total RNA was reverse transcribed into cDNA and subjected to quantitative real-time RT-PCR utilizing the GENEAMP® 5700 Sequence Detection System (Applied Biosystems, Weiterstadt, Germany). The TAQMAN®-PCR reactions for ICAM-1, IFN-γ, TNF-α, interleukin (IL)-6 and bcl-2 (synthesized by Metabion, Martinsried, Germany) were performed in a final volume of 25 μl.

[1] = 1 mg/kg single i.v. after reperfusion, kidney graft 3 days after transplantation, RT-PCR

| Compound | reduction in DNA fragmentation (H9c2 cells) [%] | mRNA expression of ICAM-1 (kidney graft; [1]) | mRNA expression of IFN-γ (kidney graft; [1]) | protection from ischemia-reperfusion injuries (kidney graft; 1 mg/kg, renal transplantation model (Rat)) |
| --- | --- | --- | --- | --- |
| CC[C@H](C)[C@H](NC(=O)[C@H](Cc1c[nH]cn1)NC(=O)[C@@H](NC(=O)[C@H](CCCNC(=N)N)NC(=O)CCCCCNC(=O)[C@H](CCCNC(=N)N)NC(=O)[C@H](CCCNC(=N)N)NC(=O)CCCCCNC(=O)[C@H](CCCNC(=N)N)NC(=O)[C@H](CCCNC(=N)N)NC(=O)CCCCCNC(=O)[C@@H](N)CCCNC(=N)N)[C@@H](C)CC)C(=O)N[C@@H](CC(C)C)C(=O)N[C@@H](Cc1ccccc1)C(=O)N[C@@H](CCC(N)=O)C(=O)N[C@@H](CC(N)=O)C(=O)N[C@H](CCCNC(=N)N)C(=O)N[C@@H](CCCNC(=N)N)C(=O)N[C@@H](CCSC)C(=O)N[C@@H](CCCCN)C(=O)N[C@@H](Cc1c[nH]c2ccccc12)C(=O)N[C@@H](Cc1c[nH]cn1)C(=O)N[C@@H](CCCCN)C(=O)N[C@@H](CCCCN)C(=O)N[C@@H](CCCCN)C(=O)N[C@@H](CO)C(=O)N[C@@H](CCCNC(=N)N)C(=O)N[C@@H](CCCCN)C(=O)N[C@@H](CCC(=O)O)C(=O)N[C@@H](CCCCN)C(=O)N[C@@H](CCCCN)C(=O)N[C@@H](CCC(N)=O)C(=O)N[C@H](C(=O)NCC(=O)N[C@@H](CO)C(=O)NCC(=O)N1CCC[C@H]1C(=O)N[C@@H](CC(C)C)C(=O)NCC(N)=O)[C@@H](C)O [Pip2b-DAXXp, (RXR)3-IHILFQNrRMKWHK-KKSRKEKKQTGSGPLG-NH2] (H-R[Ahx]RR[Ahx]RR[Ahx]RIHILFQN[dR]RMKWHKKKSRKEKKQTGSGPLG-NH2; N-terminus assumed) | 31 |  |  |  |
| GRKKRRQRRRPPQKKSRKEKKQTGSGPLG-NH2 [Tat-DAXXp, GRKKRRQRRRPPQ-KKSRKEKKQTGSGPLG-NH2] |  | reduction in mRNA expression | reduction in mRNA expression | able to protect from ischemia-reperfusion injuries |
